Assay results published in patent US10800785B2, “Substituted pyrrolo[2,3-d]pyridazin-4-ones and pyrazolo[3,4-d]pyridazin-4-ones as protein kinase inhibitors” (Shanghai Fochon Pharmaceutical Co., Ltd., priority 2016, dated 2020).

system: DOHH2 cells; experiment: Cell proliferation assay (MTS) in DOHH2 cells, mechanism-based assay for BTK inhibition; conditions: Homo sapiens, DOHH-2, 120 h incubation, 5000 cells/well
Summary of the method: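 DOHH2 cells (5000/well) were plated in RPMI-1640 with 10% FBS, left overnight, then exposed 120 h at 37° C, 5% CO2 to compound at 1.5–10000 nM final (nine levels). Proliferation was read by MTS, incubated exactly 2 h and stopped with SDS, as a measure of cellular BTK inhibition.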

Question: How did the IC50 turn out when `CN1CC[C@@H]1/C=C/C(=O)N1CCC[C@@H](c2cn(-c3ccc(Oc4ccccc4)cc3)c3c(N)n[nH]c(=O)c23)C1` [Example 107, 7-amino-3-((S)-1-((E)-3-((R)-1-methylazetidin-2-yl)acryloyl)piperidin-3-yl)-1-(4-phenoxyphenyl)-1,5-dihydro-4H-pyrrolo[2,3-d]pyridazin-4-one] was run?
Answer: 737 nM

Question: How did the IC50 turn out when `CCN1CC[C@@H]1/C=C/C(=O)N1CCC[C@@H](c2cn(-c3ccc(Oc4ccccc4F)cc3)c3c(N)n[nH]c(=O)c23)C1` [Example 110, 7-amino-3-((S)-1-((E)-3-((R)-1-ethylazetidin-2-yl)acryloyl)piperidin-3-yl)-1-(4-(2-fluorophenoxy)phenyl)-1,5-dihydro-4H-pyrrolo[2,3-d]pyridazin-4-one] was run?
Answer: 123 nM

Question: With `C=CC(=O)N1CC(c2cn(-c3ccc(Oc4ccccc4F)cc3)c3c(N)n[nH]c(=O)c23)C1` [Example 111, 3-(1-acryloylazetidin-3-yl)-7-amino-1-(4-(2-fluorophenoxy)phenyl)-1,5-dihydro-4H-pyrrolo [2,3-d]pyridazin-4-one] as the molecule, how does the IC50 read?
Answer: 261 nM

Question: With `C=CC(=O)N1CCC(c2cn(-c3ccc(Oc4ccccc4)cc3)c3c(N)n[nH]c(=O)c23)CC1` [Example 112, 3-(1-acryloylpiperidin-4-yl)-7-amino-1-(4-phenoxyphenyl)-1,5-dihydro-4H-pyrrolo[2,3-d]pyridazin-4-one] as the molecule, how does the IC50 read?
Answer: 78 nM

Question: How did the IC50 turn out when `C=CC(=O)N1CCC(c2cn(-c3ccc(Oc4ccccc4F)cc3)c3c(N)n[nH]c(=O)c23)CC1` [Example 113, 3-(1-acryloylpiperidin-4-yl)-7-amino-1-(4-(2-fluorophenoxy)phenyl)-1,5-dihydro-4H-pyrrolo[2,3-d]pyridazin-4-one] was run?
Answer: 161 nM

Question: Which IC50 does the source give for `C=CC(=O)N1CC(c2cn(-c3ccc(Oc4ccccc4)cc3)c3c(N)n[nH]c(=O)c23)C1` [Example 114, 3-(1-acryloylazetidin-3-yl)-7-amino-1-(4-phenoxyphenyl)-1,5-dihydro-4H-pyrrolo[2,3-d] pyridazin-4-one] here?
Answer: 473 nM
